We go through two molecules from patent US20180002295A1, “Compositions and Methods for Treating Anxiety and Compulsive Behavior” (University of Iowa Research Foundation, priority 2015, published 2018).

Experiment [1] concerns SAPAP3-deficient mice. Nature of the experiment: Spray-induced grooming assay (baseline and spray-induced grooming) in SAPAP3-deficient mice. It is filed as in vivo. The note with it: compared with wild type.
Experiment [2] deals with SAPAP3-deficient mice. The settings on record: reference 4; cited from earlier work.
The mark [3] stands for this setting: intracerebroventricular infusion into left lateral ventricle for 7 days by osmotic minipump.
Where [4] appears, read: intraperitoneal, 10 mg/kg/d, 10 mg/kg/day.

“Also recorded” adds a separate entry of the source.

In the case of `CCOc1ccc2nc(N/C(=N/C(=O)CC)NC(=O)CC)nc(C)c2c1` [P5C6], in experiment [1] (setting [3]), the “basal (baseline) grooming” value is “normalized” and the spray-induced grooming result is listed as “normalized”.
With `CNCCC(Oc1ccc(C(F)(F)F)cc1)c1ccccc1` (centres unmarked) [fluoxetine], in experiment [2], the “compulsive grooming leading to acquisition of facial lesions” value is recorded as “ameliorated”. In experiment [1] (setting [4]), the “basal (baseline) grooming” value is “restored to wild type levels; also recorded: normalized” and the spray-induced grooming entry is recorded as “restored to wild type levels; also recorded: normalized”.
